# Experimental data from ChEMBL document CHEMBL4177616, “Potent anti-melanogenic activity and favorable toxicity profile of selected 4-phenyl hydroxycoumarins in the zebrafish model and the computational molecular modeling studies” (Bioorg Med Chem, 2017).
# Activity calls are given as the source filed them. The calls are words filed in the database; no cut-off is given here.
# Tests used:
# [1] = biological target: T1, Tyrosinase (Danio rerio) (UniProt A0A8M1PAD4); experiment: Inhibition of zebrafish embryo tyrosinase assessed as residual activity at 50 ug/ml after 48 hrs relative to control
# T1 sequence (whole entry): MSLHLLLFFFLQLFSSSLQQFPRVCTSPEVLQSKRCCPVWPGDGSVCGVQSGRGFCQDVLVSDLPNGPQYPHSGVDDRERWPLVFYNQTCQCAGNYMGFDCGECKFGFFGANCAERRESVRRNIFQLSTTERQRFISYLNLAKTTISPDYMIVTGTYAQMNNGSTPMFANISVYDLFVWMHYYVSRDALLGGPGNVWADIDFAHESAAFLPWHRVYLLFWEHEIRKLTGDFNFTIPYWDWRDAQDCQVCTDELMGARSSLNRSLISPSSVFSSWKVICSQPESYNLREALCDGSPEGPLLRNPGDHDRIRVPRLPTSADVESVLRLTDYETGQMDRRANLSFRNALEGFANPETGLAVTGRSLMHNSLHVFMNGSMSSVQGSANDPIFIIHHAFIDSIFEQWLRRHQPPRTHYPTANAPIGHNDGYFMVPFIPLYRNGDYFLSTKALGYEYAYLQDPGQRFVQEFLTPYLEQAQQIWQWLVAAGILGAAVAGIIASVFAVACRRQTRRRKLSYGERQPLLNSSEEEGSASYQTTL
# [2] = organism: Danio rerio; experiment: Toxicity in wild type zebrafish embryos assessed as notochord at 100 ug/ml treated for 96 hrs post fertilization starting from 6 hrs post fertilization by inverted microscopic analysis relative to control; format: organism-based; details: in vivo
# [3] = Toxicity in wild type zebrafish embryos assessed as dead embryo at 500 ug/ml treated for 96 hrs post fertilization starting from 6 hrs post fertilization by inverted microscopic analysis relative to control; format: organism-based, Danio rerio; details: in vivo, read-out: Activity
# [4] = organism: Danio rerio; experiment: Toxicity in wild type zebrafish embryos assessed as otoliths at 2500 ug/ml treated for 96 hrs post fertilization starting from 6 hrs post fertilization by inverted microscopic analysis relative to control; format: organism-based; details: in vivo
# [5] = organism: Danio rerio; experiment: Toxicity in wild type zebrafish embryos assessed as growth retardation at 100 ug/ml treated for 96 hrs post fertilization starting from 6 hrs post fertilization by inverted microscopic analysis relative to control; format: organism-based; details: in vivo
# [6] = organism: Danio rerio; experiment: Toxicity in wild type zebrafish embryos assessed as skeletal deformities at 100 ug/ml treated for 96 hrs post fertilization starting from 6 hrs post fertilization by inverted microscopic analysis relative to control; format: organism-based; details: in vivo
# [7] = organism: Danio rerio; experiment: Toxicity in wild type zebrafish embryos assessed as teratogenic embryo at 500 ug/ml treated for 96 hrs post fertilization starting from 6 hrs post fertilization by inverted microscopic analysis relative to control; format: organism-based; details: in vivo
# [8] = test system: Danio rerio; experiment: Toxicity in wild type zebrafish embryos assessed as yolk edema at 2000 ug/ml treated for 96 hrs post fertilization starting from 6 hrs post fertilization by inverted microscopic analysis relative to control; format: organism-based; details: in vivo
# [9] = test system: Danio rerio; experiment: Toxicity in wild type zebrafish embryos assessed as yolk edema at 100 ug/ml treated for 96 hrs post fertilization starting from 6 hrs post fertilization by inverted microscopic analysis relative to control; format: organism-based; details: in vivo
# [10] = organism: Danio rerio; experiment: Toxicity in wild type zebrafish embryos assessed as notochord at 500 ug/ml treated for 96 hrs post fertilization starting from 6 hrs post fertilization by inverted microscopic analysis relative to control; format: organism-based; details: in vivo
# [11] = organism: Danio rerio; experiment: Toxicity in wild type zebrafish embryos assessed as unhatched embryo at 100 ug/ml treated for 96 hrs post fertilization starting from 6 hrs post fertilization by inverted microscopic analysis relative to control; format: organism-based; details: in vivo
# [12] = organism: Danio rerio; experiment: Toxicity in wild type zebrafish embryos assessed as teratogenic embryo at 2500 ug/ml treated for 96 hrs post fertilization starting from 6 hrs post fertilization by inverted microscopic analysis relative to control; format: organism-based; details: in vivo
# [13] = Toxicity in wild type zebrafish embryos assessed as dead embryo at 2500 ug/ml treated for 96 hrs post fertilization starting from 6 hrs post fertilization by inverted microscopic analysis relative to control; format: organism-based, Danio rerio; details: in vivo, read-out: Activity
# [14] = organism: Danio rerio; experiment: Toxicity in wild type zebrafish embryos assessed as notochord at 2000 ug/ml treated for 96 hrs post fertilization starting from 6 hrs post fertilization by inverted microscopic analysis relative to control; format: organism-based; details: in vivo
# [15] = organism: Danio rerio; experiment: Toxicity in wild type zebrafish embryos assessed as teratogenic embryo at 1000 ug/ml treated for 96 hrs post fertilization starting from 6 hrs post fertilization by inverted microscopic analysis relative to control; format: organism-based; details: in vivo
# [16] = organism: Danio rerio; experiment: Toxicity in wild type zebrafish embryos assessed as otoliths at 500 ug/ml treated for 96 hrs post fertilization starting from 6 hrs post fertilization by inverted microscopic analysis relative to control; format: organism-based; details: in vivo
# [17] = organism: Danio rerio; experiment: Toxicity in wild type zebrafish embryos assessed as normal embryo at 500 ug/ml treated for 96 hrs post fertilization starting from 6 hrs post fertilization by inverted microscopic analysis relative to control; format: organism-based; details: in vivo
# [18] = organism: Danio rerio; experiment: Toxicity in wild type zebrafish embryos assessed as eyes at 500 ug/ml treated for 96 hrs post fertilization starting from 6 hrs post fertilization by inverted microscopic analysis relative to control; format: organism-based; details: in vivo
# [19] = organism: Danio rerio; experiment: Toxicity in wild type zebrafish embryos assessed as otoliths at 2000 ug/ml treated for 96 hrs post fertilization starting from 6 hrs post fertilization by inverted microscopic analysis relative to control; format: organism-based; details: in vivo
# [20] = organism: Danio rerio; experiment: Toxicity in wild type zebrafish embryos assessed as heart beat at 2000 ug/ml treated for 96 hrs post fertilization starting from 6 hrs post fertilization by inverted microscopic analysis relative to control; format: organism-based; details: in vivo
# [21] = organism: Danio rerio; experiment: Toxicity in wild type zebrafish embryos assessed as scoliosis at 2.5 ug/ml treated for 96 hrs post fertilization starting from 6 hrs post fertilization by inverted microscopic analysis relative to control; format: organism-based; details: in vivo
# [22] = test system: Neutrophil; experiment: Anti-melanogenic activity in mpx:GFP transgenic zebrafish 24 hrs post fertilization embryo neutrophils assessed as decrease in pigmentation at 2 to 2.5 mg/ml; format: functional, cell-based; details: Danio rerio
# [23] = organism: Danio rerio; experiment: Toxicity in wild type zebrafish embryos assessed as normal embryo at 1000 ug/ml treated for 96 hrs post fertilization starting from 6 hrs post fertilization by inverted microscopic analysis relative to control; format: organism-based; details: in vivo
# [24] = test system: Danio rerio; experiment: Toxicity in wild type zebrafish embryos assessed as pericardial edema at 500 ug/ml treated for 96 hrs post fertilization starting from 6 hrs post fertilization by inverted microscopic analysis relative to control; format: organism-based; details: in vivo
# [25] = organism: Danio rerio; experiment: Toxicity in wild type zebrafish embryos assessed as unhatched embryo at 2500 ug/ml treated for 96 hrs post fertilization starting from 6 hrs post fertilization by inverted microscopic analysis relative to control; format: organism-based; details: in vivo
# [26] = test system: Danio rerio; experiment: Toxicity in wild type zebrafish embryos assessed as yolk edema at 500 ug/ml treated for 96 hrs post fertilization starting from 6 hrs post fertilization by inverted microscopic analysis relative to control; format: organism-based; details: in vivo
# [27] = organism: Danio rerio; experiment: Toxicity in wild type zebrafish embryos assessed as teratogenic embryo at 2000 ug/ml treated for 96 hrs post fertilization starting from 6 hrs post fertilization by inverted microscopic analysis relative to control; format: organism-based; details: in vivo
# [28] = organism: Danio rerio; experiment: Toxicity in wild type zebrafish embryos assessed as eyes at 2000 ug/ml treated for 96 hrs post fertilization starting from 6 hrs post fertilization by inverted microscopic analysis relative to control; format: organism-based; details: in vivo
# [29] = organism: Danio rerio; experiment: Toxicity in wild type zebrafish embryos assessed as unhatched embryo at 2000 ug/ml treated for 96 hrs post fertilization starting from 6 hrs post fertilization by inverted microscopic analysis relative to control; format: organism-based; details: in vivo
# [30] = organism: Danio rerio; experiment: Toxicity in wild type zebrafish embryos assessed as head malformation at 2000 ug/ml treated for 96 hrs post fertilization starting from 6 hrs post fertilization by inverted microscopic analysis relative to control; format: organism-based; details: in vivo
# [31] = in vivo; details: zebrafish
# Description: Toxicity in wild type zebrafish embryos assessed as dead embryo at 6.25 ug/ml treated for 96 hrs post fertilization starting from 6 hrs post fertilization by inverted microscopic analysis relative to control
# [32] = in vivo; details: zebrafish; remark: listed apart in the source
# Description: Toxicity in wild type zebrafish embryos assessed as dead embryo at 12.5 ug/ml treated for 96 hrs post fertilization starting from 6 hrs post fertilization by inverted microscopic analysis relative to control
structure (smiles),measurement,setting,value
O=c1cc(-c2ccccc2)c2ccc(O)cc2o1,Activity,[1],48%
O=c1cc(CO)occ1O [KOJIC ACID],Activity,[2],0%
same,mortality at 500 ug/ml,[3],0%
same,Activity,[4],86.67%
same,Activity,[5],0%
same,Activity,[6],0%
same,Activity,[7],86.67%
same,Activity,[8],0%
same,Activity,[9],0%
same,Activity,[10],0%
same,Activity,[11],0%
same,Activity,[12],100%
same,mortality at 2500 ug/ml,[13],0%
same,Activity,[14],0%
same,Activity,[15],98.33%
same,Activity,[16],0%
same,Activity,[17],13.33%
same,Activity,[18],0%
same,Activity,[19],31.67%
same,Activity,[20],96.67%
same,Activity,[21],Toxic
same,Activity,[22],Active
same,Activity,[23],1.67%
same,Activity,[24],86.67%
same,Activity,[25],0%
same,Activity,[26],0%
same,Activity,[27],100%
same,Activity,[28],0%
same,Activity,[29],0%
same,Activity,[30],78.33%
Oc1ccc(O)cc1 [HYDROQUINONE],mortality at 6.25 ug/ml,[31],0%
same,mortality at 12.5 ug/ml,[32],66.7%
